# Reference: PMC11111404, “Discovery of potent small-molecule inhibitors of lipoprotein(a) formation” (Nature, 2024)
# Where “and” joins values, the source holds several entries; their conditions need not be identical. Equal entries are not always repeated. Where two headings read alike, the source gives them in different places.
# How the values were obtained:
# Lp(a) = Lp(a) levels in cynomolgus monkeys; assay type: in vivo, cynomolgus monkey (Macaca fascicularis); set-up: key to Mean_pCFB_vs_Veh / Mean_pCFB_vs_Veh (Lp(a)): % change from pre-dose, treated group compared with vehicle; key to Mean_pCFB / Mean_pCFB (Lp(a)): % change in Lp(a) from before dosing; Lp(a): unit not given here; conditions: for Lp(a): Fig 3b raw data; for Mean_pCFB / Mean_pCFB_vs_Veh: Lp(a), female cynomolgus monkeys; for maximum decrease of median Lp(a) levels / %Lp(a) max decrease (dose, mg/kg): cynomolgus monkeys; for maximum decrease of median Lp(a) levels: after 5 days; for %Lp(a) max decrease (dose, mg/kg): 14 days dosing
# Procedure: Female or male Chinese Macaca fascicularis cynomolgus monkeys (as described in the figure legends) of unspecified ages with body weight ranging from 2.0 kg to 5.0 kg were housed in cages with a standard light cycle (12-h light, 12-h dark) at room temperature (20–26 °C); the relative humidity ranged from 30% to 70%. Monkeys were given fruits, vegetables or dietary enrichment as a form of environmental enrichment, and various cage enrichment devices. Purina Lab diet 5048C was provided BID and individual monkeys were identified by cage card. The monkeys were randomized to treatment groups by body weight and baseline plasma Lp(a) concentration, as determined by a commercially available Randox assay (Randox LP2757), using a BRAT for the study. In an example cynomolgus monkey study in which 39 monkeys were prescreened for baseline Lp(a) levels, the average Lp(a) level was 350 ± 57 µg ml^−1 (range 53–1,667 µg ml^−1). Monkeys were dosed orally with vehicle (purified water) or compounds QD or BID for 14 days, at dose levels and frequencies as previously described for each compound. Plasma samples were collected on days before dosing to establish baseline Lp(a) and after the morning dose during the study. Lp(a) levels were measured by an investigator who was blinded to group allocation using the Randox assay, and were quantified relative to the calibrator series (Randox LP3404). Data were analysed in GraphPad Prism v.9.5.1. The Lp(a) percentage change from before dosing in non-human primates was analysed by repeated measures ANOVA in SAS v.9.4 (SAS). At each time point, the Lp(a) percentage change for each treated group was compared with vehicle by the Bonferroni method.
# [1] = Pharmacokinetics in monkey plasma after oral dosing; assay type: in vivo; conditions: cynomolgus; for Cmax / Tmax: day 14; for AUC(0-t): day 14, read-out: AUC(0-96 hr)
# plasmin activity = biological target: T1, plasmin activity (Rattus norvegicus, UniProt Q01177); assay: Rat plasma plasmin (plasminogen) activity ex vivo after oral dosing; assay type: in vivo; conditions: for PLG activity (Vmax), Plasminogen (mean of replicates) / PLG activity (Vmax), Replicate 1 / PLG activity (Vmax), Replicate 2 / PLG activity % change from Vehicle: rat, individual animals; for PLG activity % change from Vehicle: Vehicle mean 267.0
# T1 construct: Plasma samples were collected via the abdominal aorta; from tissue; host or cells: Citrated plasma of orally dosed male Sprague Dawley rats
# Procedure: Male Sprague Dawley rats (Charles River, average body weight 310 g, aged eight to nine weeks old) were housed in cages with a standard light cycle (12-h light, 12-h dark), at room temperature (22 ± 4 °C), with a relative humidity of 30–70%. Rats were identified by numbers on the cage cards. After arrival, rats were fed on a normal diet (Harlan Teklad diet 2014) and randomized to treatment groups (n = 5 per group) by baseline plasma plasminogen concentration and activity using a BRAT. LSN3441732 and LY3473329 were administered QD orally at three dose levels (3.7, 12.3 and 37 mg kg^−1; 3.2, 10.5 and 31.6 mg kg^−1 per dose, respectively) or vehicle (10 ml kg^−1, 1% HEC, 0.25% Tween-80, Antifoam) for four days. Terminal blood was drawn under general anaesthesia 24 h after the day-4 oral dose. Plasma samples were collected via the abdominal aorta into a premeasured anticoagulant BD Vacutainer used for blood collection (2.7 ml, buffered sodium citrate). The liver was flash frozen in liquid nitrogen. To measure plasminogen activity, 100 µl plasma per well was added to a 96-well plate (Corning) and the following were added to the indicated concentrations: 7.5 mM CaCl2 and 117 mM NaCl. Wells were mixed and warmed to 37 °C. Urokinase (Millipore) was added at 125 U per well and the plate was incubated at 37 °C for 4 min. The plasminogen substrate Chromogenix S-2251 (DiaPharma) was added to a concentration of 3.3 mM. The mixture was added and the plate was sealed and placed in a prewarmed plate reader, shaken, and the absorbance read every 30 s for 2 h. The maximum slope for each curve was determined and the percentage inhibition was calculated relative to untreated controls. Plasminogen protein was measured using ELISA kits for rat (Abcam ab157740) according to the manufacturer’s instructions. Plasminogen activity (percentage) and mass (µg ml^−1) in rat were analysed by ANOVA in JMP 16.1.0. The percentage reduction of plasminogen activity and mass for each treated group was compared with vehicle by Dunnett’s method.
# [2] = 2mpk BID, Day 1, individual cynos
# [3] = 2mpk BID, Day 3, individual cynos
# [4] = 2mpk BID, Day 5, individual cynos
# [5] = 2mpk BID, Day 9, individual cynos
# [6] = 2mpk BID, Day 14, individual cynos
# [7] = 10mpk BID, Day 1, individual cynos
# [8] = 10mpk BID, Day 3, individual cynos
# [9] = 10mpk BID, Day 5, individual cynos
# [10] = 10mpk BID, Day 9, individual cynos
# [11] = 10mpk BID, Day 14, individual cynos
# T1 sequence (Q01177 20-812 limits assumed): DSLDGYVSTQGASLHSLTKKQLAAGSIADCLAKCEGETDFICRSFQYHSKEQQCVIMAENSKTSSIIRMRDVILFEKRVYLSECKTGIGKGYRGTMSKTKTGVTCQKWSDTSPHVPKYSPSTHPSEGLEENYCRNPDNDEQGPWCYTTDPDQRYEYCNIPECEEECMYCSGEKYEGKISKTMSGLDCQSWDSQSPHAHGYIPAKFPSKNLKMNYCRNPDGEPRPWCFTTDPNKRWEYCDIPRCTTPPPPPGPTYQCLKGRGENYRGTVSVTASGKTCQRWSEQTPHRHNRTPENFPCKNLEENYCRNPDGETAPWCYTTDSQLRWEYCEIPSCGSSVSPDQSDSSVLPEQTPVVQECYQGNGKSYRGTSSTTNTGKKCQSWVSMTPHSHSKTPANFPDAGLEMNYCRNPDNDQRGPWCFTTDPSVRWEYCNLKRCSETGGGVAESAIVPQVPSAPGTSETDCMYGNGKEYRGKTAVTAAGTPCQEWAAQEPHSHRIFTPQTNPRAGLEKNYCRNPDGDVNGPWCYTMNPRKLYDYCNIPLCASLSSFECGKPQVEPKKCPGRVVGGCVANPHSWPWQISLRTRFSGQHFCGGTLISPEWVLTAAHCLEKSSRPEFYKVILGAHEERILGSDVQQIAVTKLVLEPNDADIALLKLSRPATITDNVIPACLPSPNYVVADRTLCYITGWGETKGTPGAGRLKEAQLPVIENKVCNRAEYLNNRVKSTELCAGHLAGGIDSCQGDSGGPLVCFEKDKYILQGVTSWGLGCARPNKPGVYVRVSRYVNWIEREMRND
compound,measurement,setting,value
Cl.Cl.O=C(Nc1cccc(C[C@H](C(=O)O)[C@H]2CCNC2)c1)Nc1cccc(C[C@H](C(=O)O)[C@H]2CCNC2)c1 [LSN3441732],"pCFB (pct chng from baseline, Lp(a))",Lp(a); [2],-0.8715 pct and -9.178 pct and 9.115 pct and 2.958 pct and -14.9999 pct and -4.998 pct and -4.507 pct and 6.837 pct
same,Lp(a),Lp(a); [2],66.699 and 27.339 and 53.349 and 76.924
same,"pCFB (pct chng from baseline, Lp(a))",Lp(a); [3],-26.3908 pct and -7.214 pct and -20.0294 pct and -41.4028 pct and -34.8821 pct and 12.2337 pct and -15.3593 pct and -16.4032 pct
same,Lp(a),Lp(a); [3],59.119 and 21.392 and 39.615 and 78.588
same,"pCFB (pct chng from baseline, Lp(a))",Lp(a); [4],-60.4222 pct and -23.7562 pct and -53.193 pct and -73.9823 pct and -52.767 pct and 10.0362 pct and -38.056 pct and -25.4812 pct
same,Lp(a),Lp(a); [4],43.266 and 19.069 and 21.3 and 64.577
same,"pCFB (pct chng from baseline, Lp(a))",Lp(a); [5],-46.3414 pct and -22.6794 pct and -48.3056 pct and -58.1644 pct and -48.9556 pct and 33.2038 pct and -34.8562 pct and -42.8477 pct
same,Lp(a),Lp(a); [5],45.501 and 14.625 and 28.878
same,"pCFB (pct chng from baseline, Lp(a))",Lp(a); [6],-26.8256 pct and -20.2744 pct and -41.4618 pct and -48.6082 pct and -43.1214 pct and 61.8786 pct and -34.6787 pct and -24.6097 pct
same,Lp(a),Lp(a); [6],24.162 and 45.625 and 19.292 and 39.381
same,Lp(a),"Lp(a); 2mpk BID, Day -1 (pre-dose), individual cynos",76.499 and 27.63 and 59.314 and 80.73
same,Lp(a),"Lp(a); 2mpk BID, Day -14 (pre-dose), individual cynos",63.195 and 23.549 and 48.322 and 88.666
same,"pCFB (pct chng from baseline, Lp(a))",Lp(a); [7],6.085 pct and 18.5121 pct and 11.2235 pct and -12.4022 pct and 3.527 pct and -18.0886 pct and 0.3688 pct and -16.5769 pct
same,Lp(a),Lp(a); [7],42.107 and 61.295 and 35.316 and 53.315 and 65.761 and 52.068 and 17.81 and 84.78
same,"pCFB (pct chng from baseline, Lp(a))",Lp(a); [8],-30.0594 pct and -45.1266 pct and -34.624 pct and -67.6349 pct and -34.8372 pct and -50.8715 pct and -17.9315 pct and -61.9012 pct
same,Lp(a),Lp(a); [8],19.23 and 40.411 and 16.352 and 31.338 and 24.297 and 32.773 and 10.682 and 69.322
same,"pCFB (pct chng from baseline, Lp(a))",Lp(a); [9],-74.5889 pct and -41.8647 pct and -61.4356 pct and -52.9091 pct and -78.302 pct and -39.7105 pct and -69.6086 pct and -32.2067 pct
same,Lp(a),Lp(a); [9],12.826 and 33.59 and 11.492 and 22.573 and 16.289 and 30.322 and 6.608
same,"pCFB (pct chng from baseline, Lp(a))",Lp(a); [10],-56.8372 pct and -40.6982 pct and -59.7007 pct and -36.5829 pct and -68.9989 pct and -34.2069 pct and -69.9581 pct and 8.689 pct
same,Lp(a),Lp(a); [10],21.786 and 34.264 and 12.009 and 30.399 and 23.273 and 33.09 and 6.532
same,"pCFB (pct chng from baseline, Lp(a))",Lp(a); [11],-44.94 pct and -47.7665 pct and -60.9759 pct and -27.3662 pct and -62.6383 pct and -7.387 pct and -32.53 pct and -7.053 pct
same,Lp(a),Lp(a); [11],27.791 and 30.18 and 11.629 and 34.817 and 28.048 and 46.579 and 14.67
same,Lp(a),"Lp(a); 10mpk BID, Day -1 (pre-dose), individual cynos",51.607 and 58.876 and 34.406 and 53.514 and 88.739 and 49.824 and 82.77 and 24.664
same,Lp(a),"Lp(a); 10mpk BID, Day -14 (pre-dose), individual cynos",49.341 and 56.682 and 25.193 and 42.356 and 61.404 and 86.167 and 50.764 and 18.822
same,Mean_pCFB,"Lp(a); 2mpk BID, day 1",-1.96
same,Mean_pCFB_vs_Veh,"Lp(a); 2mpk BID, day 1",-1.99
same,Mean_pCFB,"Lp(a); 2mpk BID, day 3",-18.68
same,Mean_pCFB_vs_Veh,"Lp(a); 2mpk BID, day 3",-8.97
same,Mean_pCFB,"Lp(a); 2mpk BID, day 5",-39.7
same,Mean_pCFB_vs_Veh,"Lp(a); 2mpk BID, day 5",-22.16
same,Mean_pCFB,"Lp(a); 2mpk BID, day 9",-33.62
same,Mean_pCFB_vs_Veh,"Lp(a); 2mpk BID, day 9",-19.16
same,Mean_pCFB,"Lp(a); 2mpk BID, day 14",-22.21
same,Mean_pCFB_vs_Veh,"Lp(a); 2mpk BID, day 14",-17.15
same,Mean_pCFB,"Lp(a); 10mpk BID, day 1",-0.92
same,Mean_pCFB_vs_Veh,"Lp(a); 10mpk BID, day 1",-0.95
same,Mean_pCFB,"Lp(a); 10mpk BID, day 3",-42.87
same,Mean_pCFB_vs_Veh,"Lp(a); 10mpk BID, day 3",-33.16
same,Mean_pCFB,"Lp(a); 10mpk BID, day 5",-56.33
same,Mean_pCFB_vs_Veh,"Lp(a); 10mpk BID, day 5",-38.79
same,Mean_pCFB,"Lp(a); 10mpk BID, day 9",-44.79
same,Mean_pCFB_vs_Veh,"Lp(a); 10mpk BID, day 9",-30.33
same,Mean_pCFB,"Lp(a); 10mpk BID, day 14",-36.33
same,Mean_pCFB_vs_Veh,"Lp(a); 10mpk BID, day 14",-31.27
same,maximum decrease of median Lp(a) levels,Lp(a); 2 mg kg^−1 oral BID,45%
same,"%Lp(a) max decrease (dose, mg/kg)",Lp(a); 2 mg/kg BID,40%
same,maximum decrease of median Lp(a) levels,Lp(a); 10 mg kg^−1 oral BID,57%
same,"%Lp(a) max decrease (dose, mg/kg)",Lp(a); 10 mg/kg BID,56%
same,Cmax,[1]; oral 2 mg/kg,754 ± 428 nM
same,Tmax,[1]; oral 2 mg/kg,3.81 ± 2.14 h
same,AUC(0-t),[1]; oral 2 mg/kg,5.63 µM·h
same,Cmax,[1]; oral 10 mg/kg,4380 nM
same,Tmax,[1]; oral 10 mg/kg,2.06 ± 1.32 h
same,AUC(0-t),[1]; oral 10 mg/kg,22.2 µM·h
same,"PLG activity (Vmax), Plasminogen (mean of replicates)","plasmin activity; dose 3.7 mpk, 3.7 mg/kg",240.6 and 263.3 and 236.5 and 207.9 and 235.8
same,"PLG activity (Vmax), Replicate 1","plasmin activity; dose 3.7 mpk, 3.7 mg/kg",239.342 and 259.606 and 234.747 and 204.985 and 233.598
same,"PLG activity (Vmax), Replicate 2","plasmin activity; dose 3.7 mpk, 3.7 mg/kg",241.939 and 266.922 and 238.196 and 210.884 and 238.070
same,PLG activity % change from Vehicle,"plasmin activity; dose 3.7 mpk, 3.7 mg/kg",-9.88% and -1.40% and -11.44% and -22.12% and -11.68%
same,"PLG activity (Vmax), Plasminogen (mean of replicates)","plasmin activity; dose 12.3 mpk, 12.3 mg/kg",282.2 and 249.5 and 239.5 and 205.0 and 186.8
same,"PLG activity (Vmax), Replicate 1","plasmin activity; dose 12.3 mpk, 12.3 mg/kg",284.452 and 249.068 and 238.009 and 201.341 and 183.623
same,"PLG activity (Vmax), Replicate 2","plasmin activity; dose 12.3 mpk, 12.3 mg/kg",279.877 and 249.884 and 240.921 and 208.639 and 189.912
same,PLG activity % change from Vehicle,"plasmin activity; dose 12.3 mpk, 12.3 mg/kg",5.68% and -6.57% and -10.32% and -23.23% and -30.05%
same,"PLG activity (Vmax), Plasminogen (mean of replicates)","plasmin activity; dose 37 mpk, 37 mg/kg",195.8 and 173.1 and 184.9 and 150.3 and 200.6
same,"PLG activity (Vmax), Replicate 1","plasmin activity; dose 37 mpk, 37 mg/kg",217.532 and 172.649 and 184.379 and 149.241 and 196.980
same,"PLG activity (Vmax), Replicate 2","plasmin activity; dose 37 mpk, 37 mg/kg",174.037 and 173.594 and 185.398 and 151.449 and 204.259
same,PLG activity % change from Vehicle,"plasmin activity; dose 37 mpk, 37 mg/kg",-26.67% and -35.16% and -30.76% and -43.69% and -24.86%
same,plasma plasmin activity measured ex vivo,plasmin activity; rats treated orally at pharmacological doses,decreased plasma plasmin activity
